Measurements taken from patent US20140242606A1, “PROBE FOR iFRET AND USE THEREOF” (KOREA RESEARCH INSTITUTE OF BIOSCIENCE AND BIOTECHNOLOGY, priority 2011, published 2014).

Legend:
streptavidin [1] = target: T1, streptavidin (Streptomyces avidinii, UniProt P22629); experiment: iFRET detection of streptavidin with biotin-conjugated probes; type: binding; settings: UV irradiation at 280 nm
Excerpt: The results of detecting streptavidin using Compounds of Chemical Formulae XXV to XXVIII as probes for iFRET are shown in FIGS. 23 to 26.
(§1) As in FIG. 23 showing the result of using the compound of Chemical Formula XXV as a probe for iFRET, the probe itself emitted low fluorescence (blue line) at 430 nm by UV irradiation at 280 nm; the protein (streptavidin) emitted fluorescence (green line) at 340 nm by UV irradiation at 280 nm.
(§2) As in FIG. 24 showing the result of using the compound of Chemical Formula XXVI as a fluorescent probe, the probe itself emitted low fluorescence (blue line) at 460 nm by UV irradiation at 280 nm; the protein (streptavidin) emitted fluorescence (green line) at 340 nm by UV irradiation at 280. […] Further, it was confirmed that the fluorescence increasing rate at the above emission wavelength was 600% or more, indicating production of effective iFRET signals.
Because the compound of Chemical Formula XXVII emitted fluorescence at the longer wavelength than the known iFRET probe, signal-to-noise ratio is […] during real-time cell imaging, thereby providing more clear images.
(§3) In order to examine target specificity of the probe having Chemical Formula XXVIII, the probe was exposed to BSA to examine whether iFRET signals were produced by binding of the probe to BSA. […] Therefore, it was confirmed that the biotin-conjugated iFRET fluorescent probe of the present invention selectively binds to streptavidin to produce iFRET signals.

streptavidin [2] = target: T1, streptavidin; experiment: FRET efficiency and Forster distance of biotin-conjugated probes; type: binding; settings: between iFRET probe and streptavidin
Protocol: (§4) The quantum yield of each compound was measured in 0.1 M pH 10.0 phosphate buffer. 4-methyl-umbelliferone (ΦF 0.63) was used as a standard material, tryptophan (ΦF=0.12) was used as an FRET donor to calculate the quantum yield. FRET efficiency was calculated based on the results measured in PBS buffer at pH 7.4, and fluorescence was measured using an LS55 fluorescence spectrometer manufactured by Perkin Elmer.

BSA = BSA (Bos taurus, UniProt P02769); experiment: Target specificity of probe XXVIII against BSA; type: binding; settings: probe exposed to BSA
Sequence of BSA (P02769 25-607): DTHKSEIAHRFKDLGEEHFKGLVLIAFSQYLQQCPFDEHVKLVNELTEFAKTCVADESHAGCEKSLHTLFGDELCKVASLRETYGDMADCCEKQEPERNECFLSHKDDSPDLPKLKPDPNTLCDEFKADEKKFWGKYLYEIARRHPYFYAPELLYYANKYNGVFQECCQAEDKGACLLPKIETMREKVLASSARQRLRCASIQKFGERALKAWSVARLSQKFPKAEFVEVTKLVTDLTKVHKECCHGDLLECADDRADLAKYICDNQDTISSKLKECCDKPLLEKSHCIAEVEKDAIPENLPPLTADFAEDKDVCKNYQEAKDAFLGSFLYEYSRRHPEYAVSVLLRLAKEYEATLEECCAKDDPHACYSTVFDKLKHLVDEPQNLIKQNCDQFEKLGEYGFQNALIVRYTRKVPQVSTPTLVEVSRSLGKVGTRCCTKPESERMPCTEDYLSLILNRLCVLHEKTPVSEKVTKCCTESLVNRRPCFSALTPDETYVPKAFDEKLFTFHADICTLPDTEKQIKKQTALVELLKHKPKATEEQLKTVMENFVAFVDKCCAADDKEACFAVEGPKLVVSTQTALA
Excerpt: as §3

[3] = Quantum yield measurement; type: physicochemical; settings: 0.1 M pH 10.0 phosphate buffer, standard 4-methyl-umbelliferone
Protocol: as §4

[4] = target: BSA (bovine serum albumin) (Bos taurus, UniProt P02769); experiment: iFRET control of probe XXIV with BSA; type: binding; settings: probe (2 μM) with BSA (200 nM), PBS pH 7.4
Sequence of BSA (bovine serum albumin) (P02769 25-607): as above
Protocol: (§5) The right graph of FIG. 18 is the result of reexamining iFRET signals using Compound XXIV, purified HSP90 protein, and a control group BSA (bovine serum albumin). 2 μM Compound XXIV was used, and HSP90 protein and BSA protein were used at the final concentration of 200 nM. At this time, the used buffer was phosphate buffered saline (PBS; pH 7.4). As shown in the figure, iFRET signals result from compound XXIV and HSP90 protein which are selectively binding.
(§6) As a control group, BSA (bovine serum albumin) was used.

HSP90 protein = experiment: Dissociation constant of iFRET probe and HSP90 (double reciprocal plot of fluorescence); type: binding; settings: probe concentration fixed, HSP90 at various concentrations
Protocol: FIG. 21 is the result of binding degree of the synthesized Chemical Formula XXIV and HSP90 protein. The core structure used in the synthesis of Chemical Formula XXIV is PU-H64 (J. Med. Chem. 2006, 49, 4953-4960), and this structure binds to HSP90. The iFRET probe used in this experiment is a structure in which a fluorescent nucleus is introduced into PU-H64. In order to examine the actual binding degree of this probe and HSP90 protein, analysis of enzyme kinetics was performed to confirm that its dissociation constant is approximately 160 nM. The concentration of Chemical Formula XXIV as the iFRET probe was fixed and HSP90 was reacted at various concentrations to measure emitted fluorescence intensity. Based on this measured values, the dissociation constant was calculated. The reciprocal of the HSP90 concentration and the reciprocal of the fluorescence value were plotted to calculate the dissociation constant.

[5] = Fluorescence of the iFRET probe alone; type: physicochemical
Excerpt: After excitation at 260, 280, 340, and 360 nm, the emitted fluorescence spectra were examined. […]
as §1
as §2, with “signals. […]” for “signals.”

[6] = system: HSP90 (heat shock protein 90) protein; experiment: iFRET detection of HSP90 with probe XXIV; type: binding
Protocol: Compound XXIV was dissolved in DMSO, and then diluted with distilled water to a final concentration of 2 μM. When Compound XXIV or the protein was present alone, no fluorescence signals were newly observed around 450 nm.
as §5
FIG. 19 is a graph showing iFRET signals detected by using HSP90 protein and Chemical Formula XXIV Selectively binding thereto.
as §6

Row | iFRET signals [4] | Kd (HSP90 protein) | fluorescence emission wavelength of probe alone ([5]; excitation / UV irradiation at 280 nm) | fluorescence intensity on excitation at 340 nm compared to excitation at 280 nm ([5]; probe alone) | Structure (SMILES) | fluorescence / iFRET signal of mixture of probe and streptavidin (streptavidin [1]) | R0 (Fōrster distance) (streptavidin [2]) | iFRET signals (BSA) | Quantum yield (ΦF) [3] | iFRET signal around 450 nm ([6]; 2 μM probe with purified HSP90, DMSO diluted with distilled water) | fluorescence at 430 nm of mixture ([6]; mixture of probe and HSP90, excitation at 280 nm, versus HSP90 or probe alone)
1 |  |  |  |  | CN(C)c1ccc2cc(/C=C/C(=O)NCCNC(=O)CCCC[C@@H]3SC[C@@H]4NC(=O)N[C@@H]43)c(=O)oc2c1 [Chemical Formula XXVIII, N-((E)-7-dimethylaminocoumarin-3-acryl)-N′-(biotinyl)ethylenediamide] | iFRET signals produced | 2.102 nm | no signals were observed | 0.55 |  | 
2 | no iFRET signals | ~160 nM | approximately 430 nm | approximately 2 fold | Nc1ncnc2c1nc(Sc1cc3c(cc1Br)OCO3)n2CCC(=O)NCCNc1cccc2ccccc12 [Chemical Formula XXIV, 3-(6-amino-8-(6-bromobenzo[1,3]-dioxole-5-ylthio)-9S-purin-9-yl)-N-(2-(naphthalene-1-ylamino)ethyl)propaneamide] |  |  |  |  | new fluorescence signals were observed | increased fluorescence
